Measured values taken from US9205121B2, “Echinacea formulation” (Integria Healthcare (Australia) PTY LTD, priority 2004, dated 2015).

Assays:
Experiment in all cases: metabolism of 3 by recombinant human P450
Format in all cases: in vitro ADME
[1] = biological target: T1, P450 1A1 (Homo sapiens, UniProt P04798); conditions: recombinant P450 1A1, preliminary screen
T1 construct: made in house; host or cells: Escherichia coli, bacterial membrane fraction, bicistronic vector
T1 sequence (P04798 1-512): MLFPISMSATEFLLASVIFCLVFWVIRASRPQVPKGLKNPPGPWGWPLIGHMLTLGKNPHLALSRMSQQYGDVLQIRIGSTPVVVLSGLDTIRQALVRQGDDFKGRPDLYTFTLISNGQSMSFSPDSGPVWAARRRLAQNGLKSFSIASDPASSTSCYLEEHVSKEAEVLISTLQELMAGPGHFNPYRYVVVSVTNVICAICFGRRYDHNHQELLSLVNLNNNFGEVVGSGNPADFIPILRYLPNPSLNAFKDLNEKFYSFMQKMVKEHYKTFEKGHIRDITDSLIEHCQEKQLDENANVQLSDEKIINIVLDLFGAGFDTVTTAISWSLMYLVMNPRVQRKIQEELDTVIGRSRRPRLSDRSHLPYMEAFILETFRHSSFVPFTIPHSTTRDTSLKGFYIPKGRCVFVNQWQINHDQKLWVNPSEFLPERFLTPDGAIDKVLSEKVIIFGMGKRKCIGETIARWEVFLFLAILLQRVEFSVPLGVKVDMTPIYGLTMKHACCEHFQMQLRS
From the text: (§1) Recombinant P450s were co-expressed with hNPR in Escherichia coli according to the general procedures outlined previously. Recombinant P450 preparations were obtained from bacteria transformed with bicistronic expression vectors for P450s 1A1, 1A2, 2D6, 2E1 and 3A4 [6]; 1B1 [10]; 2A6 [8]; P450 2B6 [11]; 2C9 (wild type; P450 2C9*1) and 2C19 [12]; 3A5 and 3A7 [12] and 4A11 (D. Kim and F. P. Guengerich, unpublished data). cDNAs for P450s 2C8 and 2C18 were obtained from Prof D. J. Birkett (Flinders University of South Australia) and Prof. Philippe Beaune (INSERM U490, Universite Rene Descartes, Paris V, France) respectively, and bicistronic constructs in pCW were made according to previously published methods. Membranes from cells transformed with the monocistronic expression vector for recombinant human reductase, pCW′/hNPR, were used as a negative control. Expression of P450s and preparation of bacterial membrane fractions was done according to established methods.
(§2) Incubations (0.2 mL) with recombinant enzyme preparations were performed as described above except that bacterial membrane preparations were used at 0.1 μM P450. For P450s 3A4 and 3A5, reductase concentrations were supplemented to two fold the P450 concentration by addition of membranes from cells expressing reductase alone. For P450s 2C9 and 2C19, reductase concentrations were supplemented to five fold the P450 concentration. Negative controls contained bacterial membranes derived from cells transformed with the empty expression vector alone (“pCW”) or cells expressing only reductase (“hNPR”). Negative controls contained membranes added at total protein (“pCW”) or reductase “hNPR”) concentrations at the upper limit of those present in incubations with recombinant P450 preparations.
(§3) A preliminary screen was performed to investigate metabolism of 3 by recombinant human P450s.

[2] = biological target: T2, P450 1B1 (Homo sapiens, UniProt Q16678); conditions: recombinant P450 1B1, preliminary screen
T2 construct: made in house; host or cells: Escherichia coli, bacterial membrane fraction, bicistronic vector
T2 sequence (Q16678 1-543): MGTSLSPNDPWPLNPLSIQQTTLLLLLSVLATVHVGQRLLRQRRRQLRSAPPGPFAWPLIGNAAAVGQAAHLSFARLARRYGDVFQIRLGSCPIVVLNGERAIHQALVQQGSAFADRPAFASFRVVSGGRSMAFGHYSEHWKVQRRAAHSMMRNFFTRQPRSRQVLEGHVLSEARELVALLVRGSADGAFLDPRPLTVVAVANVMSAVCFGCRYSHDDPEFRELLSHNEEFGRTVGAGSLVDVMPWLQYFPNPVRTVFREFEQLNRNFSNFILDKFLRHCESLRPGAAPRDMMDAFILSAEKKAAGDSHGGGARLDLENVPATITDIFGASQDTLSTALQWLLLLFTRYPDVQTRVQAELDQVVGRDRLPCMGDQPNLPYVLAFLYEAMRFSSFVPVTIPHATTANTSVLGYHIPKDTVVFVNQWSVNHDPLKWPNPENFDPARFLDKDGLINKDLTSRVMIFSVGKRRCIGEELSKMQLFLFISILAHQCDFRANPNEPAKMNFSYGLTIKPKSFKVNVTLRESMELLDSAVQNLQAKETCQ
From the text: as §1, §2, §3

[3] = biological target: T3, P450 2C9 (Homo sapiens, UniProt P11712); conditions: recombinant P450 2C9, preliminary screen
T3 construct: made in house; host or cells: Escherichia coli, bacterial membrane fraction, bicistronic vector; reductase topped up to five fold the P450 concentration
T3 sequence (P11712 whole entry): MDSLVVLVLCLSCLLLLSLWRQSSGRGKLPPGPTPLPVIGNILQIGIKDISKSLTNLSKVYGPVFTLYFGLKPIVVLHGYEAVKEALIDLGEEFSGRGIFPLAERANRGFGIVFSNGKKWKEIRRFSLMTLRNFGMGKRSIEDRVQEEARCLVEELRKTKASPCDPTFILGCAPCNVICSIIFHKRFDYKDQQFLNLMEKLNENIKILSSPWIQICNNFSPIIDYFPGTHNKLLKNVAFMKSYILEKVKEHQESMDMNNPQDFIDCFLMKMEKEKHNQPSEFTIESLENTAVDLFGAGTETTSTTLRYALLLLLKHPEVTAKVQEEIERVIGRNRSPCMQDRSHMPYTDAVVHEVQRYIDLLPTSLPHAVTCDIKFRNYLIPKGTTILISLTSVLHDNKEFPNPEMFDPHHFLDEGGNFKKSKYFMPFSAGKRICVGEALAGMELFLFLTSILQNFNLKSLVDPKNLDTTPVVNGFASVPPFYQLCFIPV
From the text: as §1, §2, §3

[4] = biological target: T4, P450 2D6 (Homo sapiens, UniProt P10635); conditions: recombinant P450 2D6, preliminary screen
T4 construct: made in house; host or cells: Escherichia coli, bacterial membrane fraction, bicistronic vector
T4 sequence (P10635 whole entry): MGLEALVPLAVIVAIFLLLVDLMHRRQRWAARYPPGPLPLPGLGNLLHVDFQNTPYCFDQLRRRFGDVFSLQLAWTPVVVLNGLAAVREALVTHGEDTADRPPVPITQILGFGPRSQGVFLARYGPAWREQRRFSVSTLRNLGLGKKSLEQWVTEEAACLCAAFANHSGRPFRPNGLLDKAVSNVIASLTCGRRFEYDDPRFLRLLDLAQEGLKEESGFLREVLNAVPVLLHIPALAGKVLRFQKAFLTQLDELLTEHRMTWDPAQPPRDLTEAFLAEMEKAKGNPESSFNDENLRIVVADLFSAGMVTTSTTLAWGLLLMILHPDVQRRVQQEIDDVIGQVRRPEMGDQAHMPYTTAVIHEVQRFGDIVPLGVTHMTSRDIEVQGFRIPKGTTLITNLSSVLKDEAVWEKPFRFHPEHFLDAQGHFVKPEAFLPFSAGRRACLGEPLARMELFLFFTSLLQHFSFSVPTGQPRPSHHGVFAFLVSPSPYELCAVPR
From the text: as §1, §2, §3

[5] = system: P450 3A4; conditions: recombinant P450 3A4, preliminary screen
From the text: as §1, §2, §3

[6] = biological target: T5, P450 3A5 (Homo sapiens, UniProt P20815); conditions: recombinant P450 3A5, preliminary screen
T5 construct: made in house; host or cells: Escherichia coli, bacterial membrane fraction, bicistronic vector; reductase topped up to two fold the P450 concentration
T5 sequence (P20815 whole entry): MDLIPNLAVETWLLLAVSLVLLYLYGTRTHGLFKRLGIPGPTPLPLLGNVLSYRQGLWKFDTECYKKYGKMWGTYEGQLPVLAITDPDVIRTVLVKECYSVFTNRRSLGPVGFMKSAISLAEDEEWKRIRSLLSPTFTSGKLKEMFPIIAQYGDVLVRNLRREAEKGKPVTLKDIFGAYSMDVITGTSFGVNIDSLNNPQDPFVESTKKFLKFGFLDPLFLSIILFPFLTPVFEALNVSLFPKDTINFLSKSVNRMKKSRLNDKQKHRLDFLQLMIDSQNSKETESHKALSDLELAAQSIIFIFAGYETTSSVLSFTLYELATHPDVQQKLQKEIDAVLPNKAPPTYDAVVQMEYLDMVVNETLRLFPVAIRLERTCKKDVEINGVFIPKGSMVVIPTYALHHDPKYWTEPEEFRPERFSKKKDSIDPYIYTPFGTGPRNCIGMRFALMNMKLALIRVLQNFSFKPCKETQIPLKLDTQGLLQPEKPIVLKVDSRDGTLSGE
From the text: as §1, §2, §3

[7] = biological target: T6, P450 2A13 (Homo sapiens, UniProt Q16696); conditions: recombinant P450 2A13, preliminary screen
T6 construct: made in house; host or cells: Escherichia coli, bacterial membrane fraction
T6 sequence (Q16696 1-494): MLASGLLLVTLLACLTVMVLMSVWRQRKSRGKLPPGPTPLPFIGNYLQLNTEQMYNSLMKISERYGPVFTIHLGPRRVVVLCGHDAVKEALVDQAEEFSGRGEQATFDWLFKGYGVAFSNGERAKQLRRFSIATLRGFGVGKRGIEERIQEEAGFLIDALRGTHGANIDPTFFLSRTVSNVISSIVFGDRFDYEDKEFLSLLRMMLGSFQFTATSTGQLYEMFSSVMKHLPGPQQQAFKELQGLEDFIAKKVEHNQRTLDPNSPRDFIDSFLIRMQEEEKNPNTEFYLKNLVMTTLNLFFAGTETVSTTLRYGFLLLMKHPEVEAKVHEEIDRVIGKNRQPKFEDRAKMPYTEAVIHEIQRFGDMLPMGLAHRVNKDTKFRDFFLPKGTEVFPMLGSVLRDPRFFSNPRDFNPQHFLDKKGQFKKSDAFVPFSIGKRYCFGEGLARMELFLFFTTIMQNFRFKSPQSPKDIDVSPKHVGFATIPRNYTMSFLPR

- consumption of 3 [1]: observed
- consumption of 3 [2]: observed
- consumption of 3 [3]: observed
- consumption of 3 [4]: observed
- consumption of 3 [5]: observed
- consumption of 3 [6]: observed
- consumption of 3 [7]: observed
Compound: C/C=C\C=C/CC/C=C/C=C/C(=O)NCC(C)C [alkylamide 3, (2E,4E,8Z,10Z)—N-isobutyldodeca-2,4,8,10-tetraenamide]
